Measurements published in PubChem BioAssay AID192 (DTP/NCI, 2004).
Several values for one entry are separate records, joined by “and”; a condition that tells them apart may be missing. Equal entries are not always repeated. Inconclusive results and toxic doses are left out. How the source made its calls: active means survival T/C of 150% or more; inactive means T/C below 125% in these data.

System: BDF1 mice, B16 melanoma ip, median survival T/C
Experiment: NCI In Vivo Anticancer Drug Screen. Data for tumor model B16 Melanoma (intraperitoneal) in B6D2F1 (BDF1) mice
Conditions: endpoint: median survival time, higher = longer survival
Outline: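 Compounds were tested in mice carrying transplantable tumors. Survival or tumor size was recorded, and each value is the treated-group measurement (T) divided by that of the vehicle-treated control group (C).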

[1] = dose: 25.0 mg/kg/injection, schedule: Q01DX009 (ip), vehicle: Klucel (hydroxypropylcellulose) (HPC)
[2] = dose: 100.0 mg/kg/injection, schedule: Q01DX009 (ip), vehicle: Klucel (hydroxypropylcellulose) (HPC)
[3] = dose: 200.0 mg/kg/injection, schedule: Q01DX009 (ip), vehicle: Klucel (hydroxypropylcellulose) (HPC)
[4] = dose: 50.0 mg/kg/injection, schedule: Q01DX009 (ip), vehicle: Klucel (hydroxypropylcellulose) (HPC)
[5] = dose: 6.25 mg/kg/injection, schedule: Q01DX009 (ip), vehicle: saline
[6] = dose: 50.0 mg/kg/injection, schedule: Q01DX009 (ip), vehicle: saline with Tween-80
[7] = dose: 100.0 mg/kg/injection, schedule: Q01DX009 (ip), vehicle: saline with Tween-80
[8] = dose: 200.0 mg/kg/injection, schedule: Q01DX009 (ip), vehicle: saline with Tween-80
[9] = dose: 12.5 mg/kg/injection, schedule: Q01DX009 (ip), vehicle: saline with Tween-80
[10] = dose: 12.5 mg/kg/injection, schedule: Q01DX009 (ip), vehicle: saline
[11] = dose: 25.0 mg/kg/injection, schedule: Q01DX009 (ip), vehicle: saline
[12] = dose: 50.0 mg/kg/injection, schedule: Q01DX009 (ip), vehicle: saline
[13] = dose: 100.0 mg/kg/injection, schedule: Q01DX009 (ip), vehicle: saline

Measured: T/C

CCCCCCC(=O)O[C@H]1CC[C@H]2[C@@H]3CCC4=CC(=O)CC[C@]4(C)[C@H]3CC[C@]12C
inactive: dose: 10.0 mg/kg/injection, schedule: Q01DX009 (ip), vehicle: Klucel (hydroxypropylcellulose) (HPC) 96 % of control | dose: 20.0 mg/kg/injection, schedule: Q01DX009 (ip), vehicle: Klucel (hydroxypropylcellulose) (HPC) 110 % of control | dose: 40.0 mg/kg/injection, schedule: Q01DX009 (ip), vehicle: Klucel (hydroxypropylcellulose) (HPC) 89 % of control | dose: 80.0 mg/kg/injection, schedule: Q01DX009 (ip), vehicle: Klucel (hydroxypropylcellulose) (HPC) 103 % of control

O=P(O)(O)OCCCl
inactive: dose: 100.0 mg/kg/injection, schedule: Q04DX003 (ip), vehicle: Klucel (hydroxypropylcellulose) (HPC) 100 % of control | dose: 200.0 mg/kg/injection, schedule: Q04DX003 (ip), vehicle: Klucel (hydroxypropylcellulose) (HPC) 94 % of control | dose: 400.0 mg/kg/injection, schedule: Q04DX003 (ip), vehicle: Klucel (hydroxypropylcellulose) (HPC) 103 % of control

C=C(Br)CN(CC)CC
inactive: dose: 6.25 mg/kg/injection, schedule: Q01DX009 (ip), vehicle: Klucel (hydroxypropylcellulose) (HPC) 100 % of control | dose: 12.5 mg/kg/injection, schedule: Q01DX009 (ip), vehicle: Klucel (hydroxypropylcellulose) (HPC) 92 % of control | [1] 103 % of control

CC(=O)CC(=O)Nc1ncccc1C
inactive: dose: 25.0 mg/kg/injection, schedule: Q01DX009 (ip), vehicle: carboxymethylcellulose (CMC) 111 % of control | dose: 50.0 mg/kg/injection, schedule: Q01DX009 (ip), vehicle: carboxymethylcellulose (CMC) 106 % of control | dose: 100.0 mg/kg/injection, schedule: Q01DX009 (ip), vehicle: carboxymethylcellulose (CMC) 107 % of control

O=C1OCC2C1Cc1cc(O)c(O)cc1C2c1ccc(O)c(O)c1 (centres undefined)
inactive: [2] 112 % of control | [3] 94 % of control | dose: 400.0 mg/kg/injection, schedule: Q01DX009 (ip), vehicle: Klucel (hydroxypropylcellulose) (HPC) 105 % of control

O=C1CCC2(CCC(=O)c3ccccc32)C(=O)N1 (centres undefined)
inactive: [4] 119 % of control | [2] 114 % of control | [3] 116 % of control

N#CCN(CC#N)CC#N
inactive: dose: 1.56 mg/kg/injection, schedule: Q01DX009 (ip), vehicle: saline 97 % of control | dose: 3.13 mg/kg/injection, schedule: Q01DX009 (ip), vehicle: saline 102 % of control | dose: 3.13 mg/kg/injection, schedule: Q04DX003 (ip), vehicle: saline with Tween-80 113 % of control | [5] 100 % of control | dose: 6.25 mg/kg/injection, schedule: Q04DX003 (ip), vehicle: saline with Tween-80 94 % of control

CCC1CN2CCC3(C(=O)Nc4ccccc43)C2CC1/C(=C/OC)C(=O)OC (centres undefined)
inactive: [6] 95 % of control

COc1cc(C2C(C(=O)OC/C=C/c3ccc4c(c3)OCO4)C(c3cc(OC)c(OC)c(OC)c3)C2C(=O)OC/C=C/c2ccc3c(c2)OCO3)cc(OC)c1OC (centres undefined)
inactive: [6] 98 % of control | [7] 92 % of control | [8] 88 % of control | dose: 400.0 mg/kg/injection, schedule: Q01DX009 (ip), vehicle: saline with Tween-80 91 % of control

O=c1cc(CCl)[nH]nc1CCl
inactive: dose: 1.5 mg/kg/injection, schedule: Q01DX009 (ip), vehicle: saline with Tween-80 107 % of control | dose: 3.0 mg/kg/injection, schedule: Q01DX009 (ip), vehicle: saline with Tween-80 116 % of control | dose: 3.12 mg/kg/injection, schedule: Q01DX009 (ip), vehicle: saline with Tween-80 123 % of control | [9] 124 % of control

CCN(CC)CCOC(=O)C(c1ccccc1)C1CCCCC1 (centres undefined)
inactive: [5] 99 % of control | [10] 108 % of control | [11] 108 % of control | [12] 118 % of control | [13] 110 % of control

C[C@]12CC[C@H]3[C@@H](CCC4=CC(=O)CC[C@@]43C)[C@@H]1CC[C@@H]2OC(=O)Cc1ccc(N(CCCl)CCCl)cc1
inactive: dose: 64.0 mg/kg/injection, schedule: Q02DX009 (ip), vehicle: Klucel (hydroxypropylcellulose) (HPC) 100 % of control and 111 % of control | dose: 128.0 mg/kg/injection, schedule: Q02DX009 (ip), vehicle: Klucel (hydroxypropylcellulose) (HPC) 95 % of control and 115 % of control | dose: 256.0 mg/kg/injection, schedule: Q02DX009 (ip), vehicle: Klucel (hydroxypropylcellulose) (HPC) 122 % of control

O=c1oc(-c2ccc3c(c2)OCO3)nc2ccccc12
inactive: [4] 98 % of control | [2] 99 % of control | [3] 91 % of control

COC(=O)[C@H]1[C@H]2C[C@@H]3c4[nH]c5cc(OC)ccc5c4CCN3C[C@H]2C[C@@H](OC(=O)c2cccc(N(C)C)c2)[C@@H]1OC
inactive: dose: 0.39 mg/kg/injection, schedule: Q01DX009 (ip), vehicle: Klucel (hydroxypropylcellulose) (HPC) 93 % of control | dose: 0.78 mg/kg/injection, schedule: Q01DX009 (ip), vehicle: Klucel (hydroxypropylcellulose) (HPC) 91 % of control and 94 % of control | dose: 1.56 mg/kg/injection, schedule: Q01DX009 (ip), vehicle: Klucel (hydroxypropylcellulose) (HPC) 97 % of control and 116 % of control | dose: 3.12 mg/kg/injection, schedule: Q01DX009 (ip), vehicle: Klucel (hydroxypropylcellulose) (HPC) 94 % of control

CC(=O)Nc1ccc([I+]c2ccc([N+](=O)[O-])cc2)cc1
inactive: [1] 100 % of control | [4] 104 % of control | [6] 87 % of control | [2] 90 % of control | [7] 98 % of control | [8] 107 % of control

COc1cc(C2=NCCc3cc4c(cc32)OCO4)cc(OC)c1OC
inactive: [10] 112 % of control | [11] 118 % of control | [12] 104 % of control | [13] 101 % of control

CC1(C)N=C(N)N=C(N)N1c1ccc(CCCCc2ccc(Cl)c(S(=O)(=O)F)c2)c(Cl)c1
inactive: dose: 8.0 mg/kg/injection, schedule: Q01DX009 (ip), vehicle: saline 105 % of control | dose: 12.0 mg/kg/injection, schedule: Q01DX009 (ip), vehicle: saline 114 % of control | dose: 18.0 mg/kg/injection, schedule: Q01DX009 (ip), vehicle: saline 118 % of control

O=C(CC(=O)CC(O)(C(F)(F)F)C(F)(F)F)CC(O)(C(F)(F)F)C(F)(F)F
inactive: dose: 0.05 mg/kg/injection, schedule: Q01DX009 (ip), vehicle: saline 93 % of control | dose: 0.1 mg/kg/injection, schedule: Q01DX009 (ip), vehicle: saline 95 % of control | dose: 0.2 mg/kg/injection, schedule: Q01DX009 (ip), vehicle: saline 95 % of control | dose: 0.63 mg/kg/injection, schedule: Q04DX003 (ip), vehicle: saline 116 % of control | dose: 1.25 mg/kg/injection, schedule: Q04DX003 (ip), vehicle: saline 111 % of control | dose: 2.5 mg/kg/injection, schedule: Q04DX003 (ip), vehicle: saline 105 % of control | dose: 125.0 micrograms/kg/injection, schedule: Q01DX009 (ip), vehicle: saline with Tween-80 97 % of control

CC1=CC(=NN=c2cc(C)n([O-])c(C)c2)C=C(C)[N+]1=O
inactive: [9] 111 % of control | dose: 25.0 mg/kg/injection, schedule: Q01DX009 (ip), vehicle: saline with Tween-80 115 % of control | [6] 118 % of control

CCN(C(=O)Nc1ccccc1)c1ccccc1
inactive: dose: 100.0 mg/kg/injection, schedule: Q04DX003 (ip), vehicle: saline with Tween-80 94 % of control | dose: 200.0 mg/kg/injection, schedule: Q04DX003 (ip), vehicle: saline with Tween-80 100 % of control | dose: 400.0 mg/kg/injection, schedule: Q04DX003 (ip), vehicle: saline with Tween-80 97 % of control
